{"source": "ChEMBL document CHEMBL5380813", "about": "“Discovery of 2H-Indazole-3-carboxamide Derivatives as Novel Potent Prostanoid EP4 Receptor Antagonists for Colorectal Cancer Immunotherapy” (J Med Chem, 2023)", "key": {"[1]": {"target": "T1, Prostaglandin E2 receptor EP4 subtype (Homo sapiens, UniProt P35408)", "T1 sequence (P35408 whole entry)": "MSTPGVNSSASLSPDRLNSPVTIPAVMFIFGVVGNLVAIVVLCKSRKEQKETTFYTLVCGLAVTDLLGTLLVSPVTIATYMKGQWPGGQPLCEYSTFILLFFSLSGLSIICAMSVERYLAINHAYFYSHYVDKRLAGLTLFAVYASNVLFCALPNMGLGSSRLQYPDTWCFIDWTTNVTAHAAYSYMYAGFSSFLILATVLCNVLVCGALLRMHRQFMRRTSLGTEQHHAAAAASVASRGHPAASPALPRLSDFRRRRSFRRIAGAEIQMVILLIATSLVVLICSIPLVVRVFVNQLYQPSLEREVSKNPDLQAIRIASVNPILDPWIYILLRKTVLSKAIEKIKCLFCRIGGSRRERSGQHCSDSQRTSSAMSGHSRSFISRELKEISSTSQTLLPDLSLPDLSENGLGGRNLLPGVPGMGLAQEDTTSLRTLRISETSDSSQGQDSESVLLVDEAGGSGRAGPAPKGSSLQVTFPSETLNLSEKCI", "assay": "Antagonist activity at human EP4 receptor transfected in HEK293 cells assessed as inhibition of PGE2-induced cAMP production measured for 30 mins by Glosensor cAMP assay"}, "[2]": {"assay": "Metabolic stability in human liver assessed as intrinsic clearance"}, "[3]": {"target": "T1, Prostaglandin E2 receptor EP4 subtype", "assay": "Antagonist activity at EP4 receptor (unknown origin) by GloSensor cAMP assay"}, "[4]": {"target": "Prostaglandin E2 receptor EP2 subtype (Homo sapiens, UniProt P43116)", "sequence (P43116 whole entry)": "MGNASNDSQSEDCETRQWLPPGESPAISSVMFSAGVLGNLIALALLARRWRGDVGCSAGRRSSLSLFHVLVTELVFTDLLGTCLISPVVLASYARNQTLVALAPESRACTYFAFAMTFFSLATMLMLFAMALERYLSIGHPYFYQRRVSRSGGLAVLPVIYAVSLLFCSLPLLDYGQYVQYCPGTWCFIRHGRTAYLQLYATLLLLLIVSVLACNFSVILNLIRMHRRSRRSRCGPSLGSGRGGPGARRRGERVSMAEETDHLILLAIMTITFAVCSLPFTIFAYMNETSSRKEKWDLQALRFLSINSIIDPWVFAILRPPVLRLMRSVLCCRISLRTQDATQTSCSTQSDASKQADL", "assay": "Antagonist activity at human EP2 receptor expressed in CHO cells co-expressing Galpha16 assessed as inhibition of PGE2 induced intracellular calcium flux preincubated for 20 mins followed by PGE2 stimulation and measured immediately by microplate reader analysis", "type": "functional, cell-based"}, "[5]": {"target": "Prostaglandin E2 receptor EP4 subtype (Mus musculus, UniProt P32240)", "sequence (P32240 whole entry)": "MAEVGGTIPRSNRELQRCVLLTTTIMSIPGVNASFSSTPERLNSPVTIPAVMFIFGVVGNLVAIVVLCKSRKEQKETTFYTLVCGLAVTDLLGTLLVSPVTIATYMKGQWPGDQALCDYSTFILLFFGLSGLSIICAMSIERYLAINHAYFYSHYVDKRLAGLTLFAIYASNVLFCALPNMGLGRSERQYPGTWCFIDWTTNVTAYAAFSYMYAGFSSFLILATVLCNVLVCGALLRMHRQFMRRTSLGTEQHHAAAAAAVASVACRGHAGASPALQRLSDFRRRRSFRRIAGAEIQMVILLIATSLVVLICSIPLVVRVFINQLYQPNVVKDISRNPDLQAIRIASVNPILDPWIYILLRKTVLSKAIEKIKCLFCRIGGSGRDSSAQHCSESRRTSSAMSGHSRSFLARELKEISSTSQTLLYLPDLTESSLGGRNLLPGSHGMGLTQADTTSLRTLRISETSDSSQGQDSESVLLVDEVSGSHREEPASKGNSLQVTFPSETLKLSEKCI", "assay": "Antagonist activity at mouse EP4 receptor transfected in HEK293 cells assessed as inhibition of PGE2-induced cAMP production measured for 30 mins by Glosensor cAMP assay", "type": "functional, cell-based"}, "[6]": {"target": "Prostaglandin E2 receptor EP4 subtype (Rattus norvegicus, UniProt P43114)", "sequence (P43114 whole entry)": "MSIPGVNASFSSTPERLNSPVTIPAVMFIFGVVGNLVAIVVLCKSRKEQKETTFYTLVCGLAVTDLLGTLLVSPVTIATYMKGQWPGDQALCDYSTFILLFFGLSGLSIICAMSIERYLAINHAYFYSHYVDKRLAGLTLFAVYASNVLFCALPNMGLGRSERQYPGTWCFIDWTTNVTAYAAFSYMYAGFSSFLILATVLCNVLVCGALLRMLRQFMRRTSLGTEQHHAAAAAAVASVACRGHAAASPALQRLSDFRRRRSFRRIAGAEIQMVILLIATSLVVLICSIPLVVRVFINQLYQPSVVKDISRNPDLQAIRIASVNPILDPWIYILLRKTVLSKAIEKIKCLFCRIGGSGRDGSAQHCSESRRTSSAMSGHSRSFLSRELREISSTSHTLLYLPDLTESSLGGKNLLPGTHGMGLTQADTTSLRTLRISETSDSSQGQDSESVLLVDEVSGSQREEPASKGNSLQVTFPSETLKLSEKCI", "assay": "Antagonist activity at rat EP4 receptor transfected in HEK293 cells assessed as inhibition of PGE2-induced cAMP production measured for 30 mins by Glosensor cAMP assay", "type": "functional, cell-based"}, "Cytochrome P450 2C19": {"target": "Cytochrome P450 2C19 (Homo sapiens, UniProt P33261)", "sequence (P33261 whole entry)": "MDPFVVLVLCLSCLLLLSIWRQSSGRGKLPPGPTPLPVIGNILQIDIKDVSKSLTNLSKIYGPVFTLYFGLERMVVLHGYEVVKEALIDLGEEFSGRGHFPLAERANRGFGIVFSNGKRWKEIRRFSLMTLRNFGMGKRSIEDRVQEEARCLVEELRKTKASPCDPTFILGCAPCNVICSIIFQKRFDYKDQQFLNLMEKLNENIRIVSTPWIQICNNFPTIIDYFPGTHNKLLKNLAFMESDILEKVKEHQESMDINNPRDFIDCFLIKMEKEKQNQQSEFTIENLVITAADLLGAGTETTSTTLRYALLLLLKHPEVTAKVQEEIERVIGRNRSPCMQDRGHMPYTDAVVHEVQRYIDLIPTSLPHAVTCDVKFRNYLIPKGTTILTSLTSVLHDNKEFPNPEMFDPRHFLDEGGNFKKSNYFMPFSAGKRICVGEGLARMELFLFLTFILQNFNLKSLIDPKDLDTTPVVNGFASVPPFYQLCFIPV", "assay": "Inhibition of CYP2C19 (unknown origin)", "type": "ADME"}, "Cytochrome P450 2C9": {"target": "Cytochrome P450 2C9 (Homo sapiens, UniProt P11712)", "sequence (P11712 whole entry)": "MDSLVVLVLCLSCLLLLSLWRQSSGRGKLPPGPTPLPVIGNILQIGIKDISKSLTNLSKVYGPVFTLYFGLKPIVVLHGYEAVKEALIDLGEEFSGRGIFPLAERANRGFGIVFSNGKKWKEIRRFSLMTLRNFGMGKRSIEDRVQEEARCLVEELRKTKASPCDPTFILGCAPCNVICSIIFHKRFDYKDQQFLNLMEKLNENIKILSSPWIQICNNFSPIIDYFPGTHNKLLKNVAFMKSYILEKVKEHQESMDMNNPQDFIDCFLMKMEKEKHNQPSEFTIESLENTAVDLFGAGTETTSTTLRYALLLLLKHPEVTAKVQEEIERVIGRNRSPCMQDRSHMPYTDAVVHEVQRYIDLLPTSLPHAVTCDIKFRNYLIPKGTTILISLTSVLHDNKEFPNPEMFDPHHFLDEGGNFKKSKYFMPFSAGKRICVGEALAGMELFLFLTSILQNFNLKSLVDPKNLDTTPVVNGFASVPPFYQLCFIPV", "assay": "Inhibition of CYP2C9 (unknown origin)", "type": "ADME"}, "Cytochrome P450 2D6": {"target": "Cytochrome P450 2D6 (Homo sapiens, UniProt P10635)", "sequence (P10635 whole entry)": "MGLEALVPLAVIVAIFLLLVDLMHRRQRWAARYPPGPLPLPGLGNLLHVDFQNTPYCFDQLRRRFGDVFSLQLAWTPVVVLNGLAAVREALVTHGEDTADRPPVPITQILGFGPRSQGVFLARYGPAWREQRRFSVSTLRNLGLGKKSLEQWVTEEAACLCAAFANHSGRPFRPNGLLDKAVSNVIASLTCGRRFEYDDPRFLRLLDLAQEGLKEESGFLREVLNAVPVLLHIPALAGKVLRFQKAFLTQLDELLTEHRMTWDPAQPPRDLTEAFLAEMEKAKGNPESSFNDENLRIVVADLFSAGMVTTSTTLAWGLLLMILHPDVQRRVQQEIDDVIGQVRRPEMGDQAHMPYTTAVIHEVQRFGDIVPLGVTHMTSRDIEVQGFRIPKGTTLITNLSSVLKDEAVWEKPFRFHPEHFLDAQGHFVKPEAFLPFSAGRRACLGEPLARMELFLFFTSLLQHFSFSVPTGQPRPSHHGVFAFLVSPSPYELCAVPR", "assay": "Inhibition of CYP2D6 (unknown origin)", "type": "ADME"}, "Cytochrome P450 1A2": {"target": "T2, Cytochrome P450 1A2 (Homo sapiens, UniProt P05177)", "T2 sequence (P05177 whole entry)": "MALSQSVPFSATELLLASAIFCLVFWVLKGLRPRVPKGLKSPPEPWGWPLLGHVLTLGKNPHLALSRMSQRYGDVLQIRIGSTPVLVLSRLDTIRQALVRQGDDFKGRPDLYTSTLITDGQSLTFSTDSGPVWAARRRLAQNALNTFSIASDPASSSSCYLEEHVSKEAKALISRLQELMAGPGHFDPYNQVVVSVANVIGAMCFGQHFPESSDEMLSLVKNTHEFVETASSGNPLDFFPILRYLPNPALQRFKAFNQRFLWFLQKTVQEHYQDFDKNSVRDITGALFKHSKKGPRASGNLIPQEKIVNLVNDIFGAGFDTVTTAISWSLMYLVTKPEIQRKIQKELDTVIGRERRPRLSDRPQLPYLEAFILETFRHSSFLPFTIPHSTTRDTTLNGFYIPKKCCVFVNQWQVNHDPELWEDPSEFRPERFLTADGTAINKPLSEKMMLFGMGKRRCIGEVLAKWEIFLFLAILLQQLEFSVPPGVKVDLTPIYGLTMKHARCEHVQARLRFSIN", "assay": "Inhibition of CYP1A2 (unknown origin)", "type": "ADME"}, "[7]": {"target": "T3, Prostaglandin E2 receptor EP3 subtype (Homo sapiens, UniProt P43115)", "T3 sequence (P43115 whole entry)": "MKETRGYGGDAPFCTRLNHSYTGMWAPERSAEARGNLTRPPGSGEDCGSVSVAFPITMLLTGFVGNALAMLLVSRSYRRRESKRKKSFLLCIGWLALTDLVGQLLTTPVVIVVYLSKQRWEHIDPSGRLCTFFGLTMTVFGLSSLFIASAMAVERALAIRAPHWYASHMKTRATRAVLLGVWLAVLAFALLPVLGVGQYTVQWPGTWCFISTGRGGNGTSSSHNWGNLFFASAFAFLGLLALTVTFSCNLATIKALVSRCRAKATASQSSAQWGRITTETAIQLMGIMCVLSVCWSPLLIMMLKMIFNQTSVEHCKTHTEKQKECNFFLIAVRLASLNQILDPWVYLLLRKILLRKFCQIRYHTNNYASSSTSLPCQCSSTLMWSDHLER", "assay": "Antagonist activity at human EP3 receptor expressed in CHO cells co-expressing Galpha16 assessed as inhibition of PGE2 induced intracellular calcium flux preincubated for 20 mins followed by PGE2 stimulation and measured immediately by microplate reader analysis", "type": "functional, cell-based"}, "CYP3A": {"target": "CYP3A (Homo sapiens, UniProt P08684+P20815+P24462+Q9HB55)", "assay": "Inhibition of CYP3A (unknown origin) assessed as reduction in midazolam […] activity", "type": "ADME, protein assay", "conditions": "probe midazolam"}, "[8]": {"conditions": "human, microsomes", "description": "Metabolic stability in human liver microsomes assessed as assessed as intrinsic clearance"}, "CT26": {"tested_on": "CT26", "assay": "animal or person", "conditions": "Mus musculus, CT26, po, 240 h, read-out: TGI", "description": "Antitumor activity against mouse CT26 cells implanted in BALB/c mouse assessed as tumor growth inhibition at 100 mg/kg, po administered daily for 10 days and measured every 2 days relative to control"}}, "data": [{"smiles": "O=C(O)c1ccc(CNC(=O)c2c3ccccc3nn2Cc2cccc(Cl)c2)cc1", "values": [{"measurement": "IC50", "setting": "[1]", "result": 6.9, "unit": "nM"}]}, {"smiles": "COc1ccc(Cn2nc3ccccc3c2C(=O)N[C@@H](C)c2ccc(C(=O)O)cc2)cc1", "values": [{"measurement": "IC50", "setting": "[1]", "result": 7.2, "unit": "nM"}]}, {"smiles": "O=C(O)c1cccc(NC(=O)c2c3ccccc3nn2Cc2cccc(F)c2)c1", "values": [{"measurement": "IC50", "setting": "[1]", "result": 10000, "unit": "nM"}]}, {"smiles": "O=C(O)c1cccc(NC(=O)c2c3ccccc3nn2Cc2ccc(F)cc2)c1", "values": [{"measurement": "IC50", "setting": "[1]", "result": 10000, "unit": "nM"}]}, {"smiles": "O=C(O)c1ccc(CNC(=O)c2c3ccccc3nn2CCOc2ccc(Cl)cc2)cc1", "values": [{"measurement": "IC50", "setting": "[1]", "result": 21.8, "unit": "nM"}]}, {"smiles": "O=C(O)c1ccc(C2(NC(=O)c3c4ccccc4nn3Cc3ccc(C(F)(F)F)cc3)CC2)cc1", "values": [{"measurement": "IC50", "setting": "[1]", "result": 6.9, "unit": "nM"}]}, {"smiles": "O=C(O)c1ccc(CNC(=O)c2nn(Cc3cccc(C(F)(F)F)c3)c3ccccc23)cc1", "values": [{"measurement": "IC50", "setting": "[1]", "result": 10000, "unit": "nM"}]}, {"smiles": "COc1cccc(Cn2nc3ccccc3c2C(=O)N[C@@H](C)c2ccc(C(=O)O)cc2)c1", "values": [{"measurement": "IC50", "setting": "[1]", "result": 19, "unit": "nM"}]}, {"smiles": "COc1ccc(Cn2nc3ccccc3c2C(=O)NCc2ccc(C(=O)O)cc2)cc1F", "values": [{"measurement": "IC50", "setting": "[1]", "result": 2.1, "unit": "nM"}]}, {"smiles": "Cc1ccc(Cn2nc3ccccc3c2C(=O)NCc2ccc(C(=O)O)cc2)cc1", "values": [{"measurement": "IC50", "setting": "[1]", "result": 4.2, "unit": "nM"}]}, {"smiles": "O=C(O)c1ccc(CNC(=O)c2c3ccc(F)cc3nn2Cc2ccc(C(F)(F)F)cc2)cc1", "values": [{"measurement": "IC50", "setting": "[1]", "result": 5.7, "unit": "nM"}, {"measurement": "CLint scaled", "setting": "[2]", "result": "< 8.6", "unit": "mL/min/kg"}]}, {"smiles": "O=C(O)c1ccc(CNC(=O)c2nn(Cc3ccccc3)c3ccccc23)cc1", "values": [{"measurement": "IC50", "setting": "[1]", "result": 10000, "unit": "nM"}]}, {"smiles": "C[C@H](NC(=O)c1c2ccccc2nn1Cc1ccc(OC(F)(F)F)cc1)c1ccc(C(=O)O)cc1", "values": [{"measurement": "IC50", "setting": "[1]", "result": 4.3, "unit": "nM"}]}, {"smiles": "O=C(O)c1ccc(CNC(=O)c2c3ccccc3nn2CCOc2cccc(C(F)(F)F)c2)cc1", "values": [{"measurement": "IC50", "setting": "[1]", "result": 69.1, "unit": "nM"}]}, {"smiles": "COc1ccc(Cn2nc(C(=O)NCc3ccc(C(=O)O)cc3)c3ccccc32)cc1", "values": [{"measurement": "IC50", "setting": "[1]", "result": 10000, "unit": "nM"}]}, {"smiles": "COc1ccc(Cn2nc3ccccc3c2C(=O)NCc2ccc(C(=O)O)cc2)cc1Cl", "values": [{"measurement": "IC50", "setting": "[1]", "result": 6.5, "unit": "nM"}]}, {"smiles": "COc1ccc2c(C(=O)NCc3ccc(C(=O)O)cc3)n(Cc3ccc(C(F)(F)F)cc3)nc2c1", "values": [{"measurement": "IC50", "setting": "[1]", "result": 59.4, "unit": "nM"}]}, {"smiles": "O=C(O)c1ccc(NC(=O)c2c3ccccc3nn2Cc2ccc(F)cc2)cc1", "values": [{"measurement": "IC50", "setting": "[3]", "result": 3110, "unit": "nM"}]}, {"smiles": "O=C(O)c1ccc(CNC(=O)c2nn(Cc3cccc(Cl)c3)c3ccccc23)cc1", "values": [{"measurement": "IC50", "setting": "[1]", "result": 10000, "unit": "nM"}]}, {"smiles": "COc1ccc(Cn2nc3ccccc3c2C(=O)NCc2ccc(C(=O)O)cc2)cc1", "values": [{"measurement": "IC50", "setting": "[1]", "result": 4.4, "unit": "nM"}]}, {"smiles": "O=C(O)c1ccc(CNC(=O)c2c3ccccc3nn2Cc2ccc(F)cc2)cc1", "values": [{"measurement": "IC50", "setting": "[1]", "result": 7.1, "unit": "nM"}]}, {"smiles": "O=C(O)c1ccc(CNC(=O)c2c3ccccc3nn2Cc2ccc(Cl)c(F)c2)cc1", "values": [{"measurement": "IC50", "setting": "[1]", "result": 1.7, "unit": "nM"}, {"measurement": "CLint scaled", "setting": "[2]", "result": "< 8.6", "unit": "mL/min/kg"}]}, {"smiles": "O=C(O)c1ccc(CNC(=O)c2nn(Cc3ccc(OC(F)(F)F)cc3)c3ccccc23)cc1", "values": [{"measurement": "IC50", "setting": "[1]", "result": 10000, "unit": "nM"}]}, {"smiles": "O=C(O)c1ccc(CNC(=O)c2c3ccccc3nn2Cc2ccc(C(F)(F)F)cc2F)cc1", "values": [{"measurement": "IC50", "setting": "[1]", "result": 2, "unit": "nM"}]}, {"smiles": "COc1c(F)cc(Cn2nc3ccccc3c2C(=O)NCc2ccc(C(=O)O)cc2)cc1F", "values": [{"measurement": "IC50", "setting": "[1]", "result": 7.5, "unit": "nM"}]}, {"smiles": "COc1cccc(Cn2nc3ccccc3c2C(=O)NCc2ccc(C(=O)O)cc2)c1", "values": [{"measurement": "IC50", "setting": "[1]", "result": 12, "unit": "nM"}]}, {"smiles": "O=C(O)c1ccc(CNC(=O)c2c3ccccc3nn2Cc2ccc(C(F)(F)F)cc2)cc1", "values": [{"measurement": "IC50", "setting": "[4]", "result": "> 10000", "unit": "nM"}, {"measurement": "IC50", "setting": "[5]", "result": 1.6, "unit": "nM"}, {"measurement": "IC50", "setting": "[6]", "result": 36.3, "unit": "nM"}, {"measurement": "IC50", "setting": "Cytochrome P450 2C19", "result": "> 50000", "unit": "nM"}, {"measurement": "IC50", "setting": "Cytochrome P450 2C9", "result": "> 50000", "unit": "nM"}, {"measurement": "IC50", "setting": "Cytochrome P450 2D6", "result": "> 50000", "unit": "nM"}, {"measurement": "IC50", "setting": "Cytochrome P450 1A2", "result": "> 50000", "unit": "nM"}, {"measurement": "IC50", "setting": "[7]", "result": "> 10000", "unit": "nM"}, {"measurement": "IC50", "setting": "CYP3A", "result": "> 50000", "unit": "nM"}]}, {"smiles": "O=C(O)c1ccc(CNC(=O)c2c3ccccc3nn2Cc2cccc(F)c2)cc1", "values": [{"measurement": "IC50", "setting": "[1]", "result": 17, "unit": "nM"}]}, {"smiles": "O=C(O)c1ccc(CNC(=O)c2nn(Cc3ccc(Cl)cc3)c3ccccc23)cc1", "values": [{"measurement": "IC50", "setting": "[1]", "result": 10000, "unit": "nM"}]}, {"smiles": "COc1cccc(Cn2nc(C(=O)NCc3ccc(C(=O)O)cc3)c3ccccc32)c1", "values": [{"measurement": "IC50", "setting": "[1]", "result": 10000, "unit": "nM"}]}, {"smiles": "O=C(O)c1ccc(CNC(=O)c2nn(Cc3ccc(C(F)(F)F)cc3)c3ccccc23)cc1", "values": [{"measurement": "IC50", "setting": "[1]", "result": 10000, "unit": "nM"}]}, {"smiles": "O=C(O)Cc1ccccc1Nc1c(Cl)cccc1Cl", "note": "[DICLOFENAC]", "values": [{"measurement": "CLint scaled", "setting": "[2]", "result": 187, "unit": "mL/min/kg"}, {"measurement": "CLH", "setting": "[8]", "result": 0.2079, "unit": "mL/min/kg"}]}, {"smiles": "C[C@H](NC(=O)c1c(C(F)F)nn(C)c1Oc1cccc(C(F)(F)F)c1)c1ccc(C(=O)O)cc1", "note": "[PALUPIPRANT]", "values": [{"measurement": "inhibition in vivo at 100 mg/kg", "setting": "CT26", "result": 43.3, "unit": "%"}]}, {"smiles": "C[C@]12CC[C@H]3[C@@H](CCC4=CC(=O)CC[C@@]43C)[C@@H]1CC[C@@H]2O", "note": "[TESTOSTERONE]", "values": [{"measurement": "CLint scaled", "setting": "[2]", "result": 97.4, "unit": "mL/min/kg"}, {"measurement": "CLH", "setting": "[8]", "result": 0.1082, "unit": "mL/min/kg"}]}]}
